Experimental data as given in patent publication US20260325473A1, “N-Beta-Hydroxybutyryl-Amino Acids and Related Compositions and Methods” (The Board of Trustees of the Leland Stanford Junior …, priority 2023, published 2026).

Assays:
Assay type in all cases: in vivo, mouse
[1] = system: diet-induced obese (DIO) mice; experiment: Acute administration in DIO mice in metabolic chambers; conditions: 50 mg/kg IP, single
Method: (§1) General animal information. Animal experiments were performed according to procedure approved by the Stanford University Administrative Panel on Laboratory Animal Care (APLAC). Mice were maintained in 12-hr light-dark cycles at 22° C. and ~50% relative humidity and fed a standard irradiated rodent chow diet. Where indicated, high-fat diet (D12492, Research Diets 60% kcal from fat) and ketogenic diet (D06040601, Research Diets, 80% kcal fat/15% kcal protein/5% kcal carbohydrate) was used. Male C57BL/6J (stock no. 000664) and male C57BL/6J DIO mice (stock no. 380050) were purchased from Jackson Laboratory. Male C57BL/6NCrl (stock no. 027) mice were purchased from Charles River Laboratory. Whole body CNDP2-KO mice (catalog number, C57BL/6NCrl-Cndp2em1 (IMPC) Mbp/Mmucd, RRID: MMRRC_043492-UCD) were obtained from the Mutant Mouse Regional Resource Center, a NCRR-NIH funded strain repository. For in vivo injection of mice with metabolites, compounds were dissolved in 18:1:1 (by volume) of saline/Kolliphor EL (Sigma Aldrich)/DMSO. Compounds were administered to mice daily via intraperitoneal injections at 5 μl/g body weight at the indicated doses. For all injection experiments, mice were mock injected with the vehicle for 3-5 days until body weights have stabilized. Sample sizes were determined on the basis of previous experiments using similar methodologies. For metabolite administration experiments, mice were randomly assigned to treatment groups. Experimenters were not blinded to groups.

DIO mice [2] = experiment: Plasma AST, ALT, TG, HDL, LDL in DIO mice after chronic treatment; conditions: 50 mg/kg/day IP; 14 days
Method: as §1

[3] = Acute administration in DIO mice in home cages: food intake and plasma BHB-Phe; conditions: mouse, plasma; 50 mg/kg IP, single; read-out: time of peak plasma level
Method: as §1
(§2) Preparation of plasma samples for LC-MS analysis. Plasma was collected from mice via a submandibular bleed into lithium heparin tubes (BD, 365985) and immediately transferred onto ice. […]
(§3) Targeted metabolomics. […] Quantification of the endogenous metabolite concentrations were performed by generating a standard curve with known concentrations of each metabolite. Metabolite standards were analyzed alongside the plasma samples using the same targeted triple quadrupole LC/MS method. […] The dilution of the plasma during the sample preparation was also taken into account for the quantification.

DIO mice [4] = experiment: as above; conditions: 50 mg/kg IP
Method: as §1, §2, §3

Structure (SMILES): CC(O)CC(=O)N[C@@H](Cc1ccccc1)C(=O)O (stereo partly drawn) [BHB-Phe, N-betahydroxybutyryl-phenylalanine]
- food intake (metabolic chambers) [1]: reduced food intake
- ambulatory movement ([1]; over 10 h): without affecting movement
- energy expenditure: carbon dioxide production (VCO2) ([1]; over 10 h): without affecting movement, oxygen consumption or CO^2 production
- energy expenditure: oxygen consumption (VO2) ([1]; over 10 h): without affecting movement, oxygen consumption
- reduction of food intake ([1]; over 10 h): ~ 30%
- respiratory exchange ratio (RER) ([1]; over 10 h): reduction in respiratory exchange ratio (RER)
- ambulatory movement ([1]; over 10 h, listed as Keto-Phe): no effects
- energy expenditure: carbon dioxide production (VCO2) ([1]; over 10 h, listed as Keto-Phe): no effects
- energy expenditure: oxygen consumption (VO2) ([1]; over 10 h, listed as Keto-Phe): no effects
- respiratory exchange ratio (RER) ([1]; over 10 h, listed as Keto-Phe): no effects
- plasma ALT (DIO mice [2]): reductions
- plasma AST (DIO mice [2]): reductions
- plasma HDL-cholesterol (DIO mice [2]): no changes
- plasma LDL-cholesterol (DIO mice [2]): no changes
- plasma total triglycerides (TG) (DIO mice [2]): reductions
- Tmax [3]: 1 h
- time to return of plasma level to largely baseline values (DIO mice [4]; single): ≤ 3 h
- food intake after single administration (home cages) (DIO mice [4]; 3 h and 1 h): suppressed food intake at a 3 h, but not 1 h time point
